Measured values reported in EPA's ToxValDB 9.5 (doi:10.2903/j.efsa.2006.87r).
Values after ≈ are worked out from the molar mass of the structure shown.

Key:
Bird = conditions: for LD50: acute, oral, unspecified, mortality
Daphnia magna = conditions: chronic/long-term; duration: 21 days; reproduction
Lepomis macrochirus = conditions: acute; duration: 96 hours; mortality
Oncorhynchus mykiss = conditions: chronic/long-term; duration: 28 days; growth
Bibionidae = conditions: chronic/long-term; duration: 28 days
Apis mellifera = conditions: acute; duration: 48 hours; oral; unspecified; mortality
Oryctolagus sp. = conditions: reproduction developmental; mortality
Canidae = conditions: chronic; duration: 1 years; oral; Dog Other
Aphidius rhopalosiphi = conditions: not reported

SMILES | LD50 (Bird) | NOEC (Daphnia magna) | LC50 (Lepomis macrochirus) | NOEC (Oncorhynchus mykiss) | NOEC (Bibionidae) | NOEC (Bird; reproductive) | LD50 (Apis mellifera) | LC50 (Tagia sp.; acute, duration: 14 days, mortality) | NOEC (Tagia sp.; chronic/long-term, reproduction) | LC50 (acute, oral, diet, mortality) | NOAEL (chronic/long-term) | NOAEL (Oryctolagus sp.) | NOAEL (Canidae) | LD50 (Rattus norvegicus; acute, oral, mortality) | NOAEL (Rattus norvegicus; chronic, duration: 2 years, organ weight) | NOAEL (Rattus norvegicus; reproduction developmental, body weight) | LEL (Aphidius rhopalosiphi; mortality) | LEL (Aphidius rhopalosiphi; reproduction)
COC(=O)[C@@H](C)Oc1ccc(Oc2ncc(C(F)(F)F)cc2Cl)cc1 [Haloxyfop-P-methyl] | 1160 mg/kg-day | 0.509 mg/L | 0.0884 µg/mL (≈ 0.235 µM) | 0.0052 mg/L | 2.5 mg/L |  |  |  |  |  |  |  |  |  |  |  |  | 
C[C@@H](Oc1ccc(Oc2ncc(C(F)(F)F)cc2Cl)cc1)C(=O)O [Haloxyfop-P] | 414 mg/kg |  |  |  |  | 17.1 mg/kg-day | > 100 µg/piece | 830 mg/kg | 810 g/ha | > 1110 mg/kg-day | 1 mg/kg-day | 7.5 mg/kg-day | 0.5 mg/kg-day | ≥ 300 mg/kg | 0.065 mg/kg-day | 0.065 mg/kg-day | 108 g/ha | 5.7 g/ha
